Data as given in patent US9328099B2, “Cyanomethylpyrazole carboxamides as janus kinase inhibitors” (Merck Sharp & Dohme Corp., priority 2011, dated 2016).

Assays:
JAK2 = JAK2 (Homo sapiens (Human), UniProt O60674); assay: Jak Biochemical HTRF Assay, JAK2; details: HTRF biochemical assay, GST-tagged catalytic domain; top concentration tested […]
Description: (§1) Jak Biochemical HTRF Assay Protocol
(§2) Subsequent reagent additions employed an Agilent Bravo.

JAK1 = JAK1 (Homo sapiens (Human), UniProt P23458); assay: Jak Biochemical HTRF Assay, JAK1; details: HTRF biochemical assay, GST-tagged catalytic domain; top concentration tested […]; read-out: JAK1 IC50
Chain of JAK1 (P23458 875-1153): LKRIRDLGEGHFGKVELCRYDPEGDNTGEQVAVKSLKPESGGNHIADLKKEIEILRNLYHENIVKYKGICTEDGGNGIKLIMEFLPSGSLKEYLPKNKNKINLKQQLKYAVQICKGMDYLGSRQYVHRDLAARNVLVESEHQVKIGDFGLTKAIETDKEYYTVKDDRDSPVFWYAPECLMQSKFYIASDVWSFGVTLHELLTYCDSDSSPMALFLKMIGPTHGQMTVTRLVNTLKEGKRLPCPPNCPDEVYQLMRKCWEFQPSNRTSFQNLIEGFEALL
Description: as §1, §2

Chain of JAK2 (O60674 849-1124): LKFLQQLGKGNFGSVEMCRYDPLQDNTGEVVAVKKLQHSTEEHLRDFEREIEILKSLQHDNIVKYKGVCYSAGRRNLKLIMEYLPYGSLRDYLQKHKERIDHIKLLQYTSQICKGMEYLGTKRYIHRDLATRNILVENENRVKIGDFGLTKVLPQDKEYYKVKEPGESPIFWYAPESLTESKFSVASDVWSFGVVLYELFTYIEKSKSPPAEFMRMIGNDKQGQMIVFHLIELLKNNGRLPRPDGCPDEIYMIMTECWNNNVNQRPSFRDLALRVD

| IC50 (JAK2) [nM] | IC50 (JAK1) [nM] | SMILES |
| --- | --- | --- |
| 78 | 4 | Cc1cccc(NC(=O)N2CC(CC#N)(n3cc(C(N)=O)c(Nc4ccccc4)n3)C2)c1 [Example 38-11, 1-{3-(cyanomethyl)-1-[(3-methylphenyl)carbamoyl]azetidin-3-yl}-3-(phenylamino)-1H-pyrazole-4-carboxamide] |
| 1 | 0.03 | N#CCC1(n2cc(C(N)=O)c(Nc3ccnc(F)c3)n2)CCC(Nc2cc(F)ccc2F)CC1 (stereo not drawn) [Example 40-63, Cis or trans 1-{1-(cyanomethyl)-4-[(2,5-difluorophenyl)amino]cyclohexyl}-3-[(2-fluoropyridin-4-yl)amino]-1H-pyrazole-4-carboxamide] |
| 9 | 3 | N#CCC1(n2cc(C(N)=O)c(Nc3ccccc3)n2)CCN(S(=O)(=O)c2ccccc2Cl)CC1 [Example 37-12, 1-{1-[(2-chlorophenyl)sulfonyl]-4-(cyanomethyl)piperidin-4-yl}-3-(phenylamino)-1H-pyrazole-4-carboxamide] |
| > 1500 | 215 | N#CCC1(n2cc(C(N)=O)c(Nc3ccnc(F)c3)n2)CCC(Nc2ccc(F)cc2)CC1 (stereo not drawn) [Example 40-47, Cis or trans 1-{1-(cyanomethyl)-4-[(4-fluorophenyl)amino]cyclohexyl}-3-[(2-fluoropyridin-4-yl)amino]-1H-pyrazole-4-carboxamide] |
| 704 | 61 | N#CCC1(n2cc(C(N)=O)c(Nc3ccccc3)n2)CCN(C(=O)c2ccc(N3CCOCC3)cc2)CC1 [Example 34-31, 1-{4-(cyanomethyl)-1-[(4-morpholin-4-ylphenyl)carbonyl]piperidin-4-yl}-3-(phenylamino)-1H-pyrazole-4-carboxamide] |
| 102 | 5 | N#CCC1(n2cc(C(N)=O)c(Nc3ccccc3)n2)CN(C(=O)OC2CCOC2)C1 (stereo not drawn) [Example 30-62, tetrahydrofuran-3-yl 3-[4-carbamoyl-3-(phenylamino)-1H-pyrazol-1-yl]-3-(cyanomethyl)azetidine-1-carboxylate] |
| > 1500 | 326 | N#CCC1(n2cc(C(N)=O)c(Nc3ccnc(F)c3)n2)CCC(N2CCc3ccccc32)CC1 (stereo not drawn) [Example 40-30, Cis or trans 1-[1-(cyanomethyl)-4-(2,3-dihydro-1H-indol-1-yl)cyclohexyl]-3-[(2-fluoropyridin-4-yl)amino]-1H-pyrazole-4-carboxamide] |
| > 1500 | 506 | N#CCC1(n2cc(C(N)=O)c(Nc3ccc(S(=O)(=O)C(F)F)cc3)n2)CCC(NCC(F)F)CC1 (stereo not drawn) [Example 40-99, Cis or trans 1-{1-(cyanomethyl)-4-[(2,2-difluoroethyl)amino]cyclohexyl}-3-({4-[(difluoromethyl)sulfonyl]phenyl}amino)-1H-pyrazole-4-carboxamide] |
| 491 | 74 | N#CCC1(n2cc(C(N)=O)c(Nc3ccccc3)n2)CN(C(=O)OCCN2CCOCC2)C1 [Example 30-55, 2-morpholin-4-ylethyl 3-[4-carbamoyl-3-(phenylamino)-1H-pyrazol-1-yl]-3-(cyanomethyl)azetidine-1-carboxylate] |
| 832 | 38 | N#CCC1(n2cc(C(N)=O)c(Nc3ccnc(F)c3)n2)CCC(Nc2cccc(Cl)c2)CC1 (stereo not drawn) [Example 40-62, Cis or trans 1-{4-[(3-chlorophenyl)amino]-1-(cyanomethyl)cyclohexyl}-3-[(2-fluoropyridin-4-yl)amino]-1H-pyrazole-4-carboxamide] |
| 279 | 18 | N#CCC1(n2cc(C(N)=O)c(Nc3ccccc3)n2)CN(C(=O)Nc2ccc(F)c(Cl)c2)C1 [Example 38-40, 1-{1-[(3-chloro-4-fluorophenyl)carbamoyl]-3-(cyanomethyl)azetidin-3-yl}-3-(phenylamino)-1H-pyrazole-4-carboxamide] |
| 44 | 2 | N#CCC1(n2cc(C(N)=O)c(Nc3ccc(F)cc3)n2)CCN(C(=O)OC2COC2)CC1 [Example 30-18, oxetan-3-yl 4-{4-carbamoyl-3-[(4-fluorophenyl)amino]-1H-pyrazol-1-yl}-4-(cyanomethyl)piperidine-1-carboxylate] |
| 166 | 6 | N#CCC1(n2cc(C(N)=O)c(Nc3ccccc3)n2)CCN(C(=O)c2ccc3ccccc3n2)CC1 [Example 34-32, 1-[4-(cyanomethyl)-1-(quinolin-2-ylcarbonyl)piperidin-4-yl]-3-(phenylamino)-1H-pyrazole-4-carboxamide] |
| 2 | 0.1 | N#CCC1(n2cc(C(N)=O)c(Nc3ccnc(F)c3)n2)CCC(NCc2ccc(Cl)cc2)CC1 (stereo not drawn) [Example 41-15, Cis or trans 1-{4-[(4-chlorobenzyl)amino]-1-(cyanomethyl)cyclohexyl}-3-[(2-fluoropyridin-4-yl)amino]-1H-pyrazole-4-carboxamide] |
| 86 | 4 | CC(=O)c1cccc(NC(=O)N2CC(CC#N)(n3cc(C(N)=O)c(Nc4ccccc4)n3)C2)c1 [Example 38-32, 1-{1-[(3-acetylphenyl)carbamoyl]-3-(cyanomethyl)azetidin-3-yl}-3-(phenylamino)-1H-pyrazole-4-carboxamide] |
| 230 | 14 | CN(C)c1ccc(C(=O)N2CCC(CC#N)(n3cc(C(N)=O)c(Nc4ccccc4)n3)CC2)cc1 [Example 34-23, 1-[4-(cyanomethyl)-1-{[4-(dimethylamino)phenyl]carbonyl}piperidin-4-yl]-3-(phenylamino)-lH-pyrazole-4-carboxamide] |
| 849 | 108 | N#CCC1(n2cc(C(N)=O)c(Nc3ccccc3)n2)CN(C(=O)OCCc2ccccn2)C1 [Example 30-67, 2-pyridin-2-ylethyl 3-[4-carbamoyl-3-(phenylamino)-1H-pyrazol-1-yl]-3-(cyanomethyl)azetidine-1-carboxylate] |
| 85 | 3 | N#CCC1(n2cc(C(N)=O)c(Nc3ccccc3)n2)CCN(C(=O)OCc2ccccc2)CC1 [Example 27-4, benzyl 4-[4-carbamoyl-3-(phenylamino)-1H-pyrazol-1-yl]-4-(cyanomethyl)piperidine-1-carboxylate] |

The next lines start with the compound.

| SMILES | IC50 (JAK2) [nM] | IC50 (JAK1) [nM] |
| --- | --- | --- |
| Cc1ccncc1N1CCC(CC#N)(n2cc(C(N)=O)c(Nc3ccc(F)cc3)n2)CC1 [Example 3-33, 1-[4-(cyanomethyl)-1-(4-methylpyridin-3-yl)piperidin-4-yl]-3-[(4-fluorophenyl)amino]-1H-pyrazole-4-carboxamide] | 102 | 7 |
| N#CCC1(n2cc(C(N)=O)c(Nc3ccnc(F)c3)n2)CCN(Cc2cncc(F)c2)CC1 [Example 22-38, 1-{4-(cyanomethyl)-1-[(5-fluoropyridin-3-yl)methyl]piperidin-4-yl}-3-[(2-fluoropyridin-4-yl)amino]-1H-pyrazole-4-carboxamide] | 5 | 0.2 |
| Cc1cc(CN2CCC(CC#N)(n3cc(C(N)=O)c(Nc4ccnc(F)c4)n3)CC2)no1 [Example 22-27, 1-{4-(cyanomethyl)-1-[(5-methylisoxazol-3-yl)methyl]piperidin-4-yl}-3-[(2-fluoropyridin-4-yl)amino]-1H-pyrazole-4-carboxamide] | 157 | 6 |
| N#CCC1(n2cc(C(N)=O)c(Nc3ccc(F)cc3)n2)CCN(c2cccnc2F)CC1 [Example 3-51, 1-[4-(cyanomethyl)-1-(2-fluoropyridin-3-yl)piperidin-4-yl]-3-[(4-fluorophenyl)amino]-1H-pyrazole-4-carboxamide] | 0.6 | 0.06 |
| N#CCC1(n2cc(C(N)=O)c(Nc3ccnc(F)c3)n2)CCN(Cc2ccccc2Cl)CC1 [Example 22-59, 1-[1-(2-chlorobenzyl)-4-(cyanomethyl)piperidin-4-yl]-3-[(2-fluoropyridin-4-yl)amino]-1H-pyrazole-4-carboxamide] | 7 | 0.2 |
| Cc1noc(-c2ccc(Nc3nn(C4(CC#N)CCN(C(=O)OC(C)(C)C)CC4)cc3C(N)=O)cc2)n1 [Example 9-30, tert-butyl 4-(4-carbamoyl-3-{[4-(3-methyl-1,2,4-oxadiazol-5-yl)phenyl]amino}-1H-pyrazol-1-yl)-4-(cyanomethyl)piperidine-1-carboxylate] | 5 | 0.2 |
| N#CCC1(n2cc(C(N)=O)c(Nc3ccccc3)n2)CCN(Cc2c(F)cccc2F)CC1 [Example 21-23, 1-[4-(cyanomethyl)-1-(2,6-difluorobenzyl)piperidin-4-yl]-3-(phenylamino)-1H-pyrazole-4-carboxamide] | 13 | 0.8 |
| N#CCC1(n2cc(C(N)=O)c(Nc3ccccc3)n2)CCN(Cc2cccnc2)CC1 [Example 21-2, 1-[4-(cyanomethyl)-1-(pyridin-3-ylmethyl)piperidin-4-yl]-3-(phenylamino)-1H-pyrazole-4-carboxamide] | 11 | 3 |
| Cc1ncc(CN2CCC(CC#N)(n3cc(C(N)=O)c(Nc4ccnc(F)c4)n3)CC2)s1 [Example 22-15, 1-{4-(cyanomethyl)-1-[(2-methyl-1,3-thiazol-5-yl)methyl]piperidin-4-yl}-3-[(2-fluoropyridin-4-yl)amino]-1H-pyrazole-4-carboxamide] | 18 | 1 |
| N#CCC1(n2cc(C(N)=O)c(Nc3ccccc3)n2)CCN(Cc2ccc(-c3ccccc3)cc2)CC1 [Example 21-1, 1-[1-(Biphenyl-4-ylmethyl)-4-(cyanomethyl)piperidin-4-yl]-3-(phenylamino)-1H-pyrazole-4-carboxamide] | 46 | 6 |
| CC(C)(C)OC(=O)N1CCC(CC#N)(n2cc(C(N)=O)c(Nc3ccc(C#N)nc3)n2)CC1 [Example 9-12, tert-butyl 4-{4-carbamoyl-3-[(6-cyanopyridin-3-yl)amino]-1H-pyrazol-1-yl}-4-(cyanomethyl)piperidine-1-carboxylate] | 6 | 0.5 |
| CC(C)(C)OC(=O)N1CCC(CC#N)(n2cc(C(N)=O)c(Nc3cncc(Cl)c3)n2)CC1 [Example 9-36, tert-butyl 4-{4-carbamoyl-3-[(5-chloropyridin-3-yl)amino]-1H-pyrazol-1-yl}-4-(cyanomethyl)piperidine-1-carboxylate] | 21 | 0.9 |
